The text below walks through data of patent US11185537B2, “3-(5-amino-1-oxoisoindolin-2-yl)piperidine-2,6-dione derivatives and uses thereof” (Novartis AG, priority 2018, dated 2021).

For this test, the target named is IKZF2 (Helios) (Homo sapiens (Human), UniProt Q96SW2+Q9UKS7). The experiment in a line: Prolabel quantification of IKZF2 protein levels in 293GT cells.

Broadly, the EC50 is the concentration needed to bring the measured effect to its halfway point.

Counter-ions that a name gives are not always drawn.

Sequence of IKZF2 (Helios) (Q9UKS7 whole entry): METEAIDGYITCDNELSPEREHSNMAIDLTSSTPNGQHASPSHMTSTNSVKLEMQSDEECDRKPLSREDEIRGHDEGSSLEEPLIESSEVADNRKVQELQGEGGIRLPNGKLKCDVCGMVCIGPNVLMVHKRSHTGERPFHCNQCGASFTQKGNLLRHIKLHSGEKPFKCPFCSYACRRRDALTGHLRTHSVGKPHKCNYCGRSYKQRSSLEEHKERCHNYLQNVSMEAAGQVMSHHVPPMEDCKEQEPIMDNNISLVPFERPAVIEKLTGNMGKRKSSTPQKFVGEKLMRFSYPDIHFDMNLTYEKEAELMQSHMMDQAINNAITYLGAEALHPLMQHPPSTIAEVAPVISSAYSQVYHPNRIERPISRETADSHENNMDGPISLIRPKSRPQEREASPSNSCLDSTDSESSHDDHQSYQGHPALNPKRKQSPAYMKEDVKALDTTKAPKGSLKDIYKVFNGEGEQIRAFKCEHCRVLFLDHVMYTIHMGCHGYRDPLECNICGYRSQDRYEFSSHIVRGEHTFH
Sequence of IKZF2 (Helios) (Q96SW2 whole entry): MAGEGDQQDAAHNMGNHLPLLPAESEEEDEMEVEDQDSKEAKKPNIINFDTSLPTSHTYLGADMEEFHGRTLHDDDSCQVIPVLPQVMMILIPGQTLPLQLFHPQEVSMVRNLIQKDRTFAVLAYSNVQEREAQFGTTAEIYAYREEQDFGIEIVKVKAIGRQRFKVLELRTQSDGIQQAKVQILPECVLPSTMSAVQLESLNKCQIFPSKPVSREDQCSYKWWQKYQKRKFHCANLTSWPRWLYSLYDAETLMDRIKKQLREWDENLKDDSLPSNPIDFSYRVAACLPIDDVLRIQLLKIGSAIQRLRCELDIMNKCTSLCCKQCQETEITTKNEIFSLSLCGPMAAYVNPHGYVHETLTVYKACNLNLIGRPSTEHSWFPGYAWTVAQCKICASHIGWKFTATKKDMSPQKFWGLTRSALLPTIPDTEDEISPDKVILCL
Sequence of IKZF2 (Helios) (Q16531 whole entry partner): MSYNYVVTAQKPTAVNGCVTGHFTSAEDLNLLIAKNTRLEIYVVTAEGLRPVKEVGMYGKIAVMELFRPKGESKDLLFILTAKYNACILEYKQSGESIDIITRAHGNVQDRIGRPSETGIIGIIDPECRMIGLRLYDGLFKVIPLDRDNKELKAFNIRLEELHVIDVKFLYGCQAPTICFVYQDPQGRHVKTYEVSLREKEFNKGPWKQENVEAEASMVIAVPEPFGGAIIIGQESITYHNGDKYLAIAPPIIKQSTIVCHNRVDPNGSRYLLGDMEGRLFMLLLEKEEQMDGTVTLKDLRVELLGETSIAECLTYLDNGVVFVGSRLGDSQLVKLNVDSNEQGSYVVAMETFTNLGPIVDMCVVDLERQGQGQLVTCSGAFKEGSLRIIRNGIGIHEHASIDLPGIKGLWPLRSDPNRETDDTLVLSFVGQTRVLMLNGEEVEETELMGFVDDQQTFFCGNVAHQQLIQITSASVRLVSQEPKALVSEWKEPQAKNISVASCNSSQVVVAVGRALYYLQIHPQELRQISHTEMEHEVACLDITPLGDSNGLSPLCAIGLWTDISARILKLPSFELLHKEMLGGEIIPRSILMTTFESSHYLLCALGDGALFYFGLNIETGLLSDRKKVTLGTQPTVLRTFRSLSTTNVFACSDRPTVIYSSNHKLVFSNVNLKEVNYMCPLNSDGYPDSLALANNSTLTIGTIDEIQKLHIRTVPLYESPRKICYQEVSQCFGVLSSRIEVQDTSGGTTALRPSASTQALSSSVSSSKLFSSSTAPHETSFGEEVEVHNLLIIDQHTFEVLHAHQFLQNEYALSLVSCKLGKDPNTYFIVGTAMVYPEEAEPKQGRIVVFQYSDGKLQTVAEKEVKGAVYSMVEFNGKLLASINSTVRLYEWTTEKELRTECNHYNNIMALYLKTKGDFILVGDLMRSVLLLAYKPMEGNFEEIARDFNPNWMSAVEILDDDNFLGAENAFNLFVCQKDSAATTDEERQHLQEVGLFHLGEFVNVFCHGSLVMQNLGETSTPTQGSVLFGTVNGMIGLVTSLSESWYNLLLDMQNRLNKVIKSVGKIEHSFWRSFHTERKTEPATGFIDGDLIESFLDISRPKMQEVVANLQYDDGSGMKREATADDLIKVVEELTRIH
Description: The Prolabel system from DiscoverX was used to develop high-throughput and quantitative assays to measure changes in IKZF1, IKZF2, and GSPT1 protein levels in response to compounds. […] The complementary fragment of beta-galactosidase (from DiscoverX), is added to the prolabel tag to form an active beta galactosidase enzyme whose activity can be precisely measured. In this way, the levels of a fusion protein with the prolabel tag can be quantified in cell lysates.
Lentiviral vectors, based on the Invitrogen pLenti6.2/V5 DEST backbone, were constructed that placed the prolabel tag upstream of IKZF1, IKZF2, or GSPT1 and expressed the fusion protein from a CMV promoter.
To ensure moderate and consistent expression of the prolabel fusion proteins across all cells in the population, stable cell lines were constructed from cells expressing a single copy of the construct. Lentivirus packaged with the constructs was made using the Virapower kit from Invitrogen.
The levels of prolabel tagged fusion proteins in compound treated cell lines were measured as follows: […]
Day 3, Plates were removed from the incubator and allowed to equilibrate at rt for 30 minutes. […] Plates were incubated at rt for three hours and luminescence was read using an Envision reader (Perkin Elmer) Data was analyzed and visualized using the Spotfire software package.

`CC(C)CN[C@H]1CCCC[C@@H]1Nc1ccc2c(c1)CN(C1CCC(=O)NC1=O)C2=O` (stereo partly drawn) [I-15, 3-(5-(((1S,2S)-2-(isobutylamino)cyclohexyl)amino)-1-oxoisoindolin-2-yl)piperidine-2,6-dione]: the EC50 (read-out: IKZF2 EC50, Pro-label assay, 293GT cells, degradation) was found to be 940 nM.
As for `CN[C@H]1CCCC[C@@H]1N(C)c1ccc2c(c1)CN(C1CCC(=O)NC1=O)C2=O` (mixture of isomers) [I-9, Racemic trans-3-(5-(methyl(-2-(methylamino)cyclohexyl)amino)-1-oxoisoindolin-2-yl)piperidine-2,6-dione HC(O)OH Salt], the Dmax at 10 µM (24 h, read-out: IKZF2 % protein reduction at 10 μM, 24 h) was found to be 65%.
